In paper PMC9603750, “Chalcone-Acridine Hybrid Suppresses Melanoma Cell Progression via G2/M Cell Cycle Arrest, DNA Damage, Apoptosis, and Modulation of MAP Kinases Activity” (International Journal of Molecular Sciences, 2022):

Columns and labels:
Assay type in all cases: cell-based, human
A2058 melanoma cells [1] = assay: Western blot analyses of protein expression/phosphorylation
Method: (§1) Melanoma cells (A2058 and BLM) were treated with the tested chalcone 1C (10 μM and 20 μM) for 24, 48 and 72 h. Protein lysates from melanoma cells were prepared using a Laemmle lysis buffer containing glycerol, 1M Tris/HCl (pH 6.8), 20% sodium dodecyl sulfate (SDS), deionized H20, phosphatase and protease inhibitors (Sigma-Aldrich) and a sonication process. The protein concentrations were determined by the Pierce® BCA Protein Assay Kit (Thermo Scientific, Rockford, IL, USA) and measured by an automated Cytation™ 3 Cell Imaging Multi-Mode Reader (Biotek) at a wavelength of 570 nm. Proteins (25–40 μg of sample per well) were separated on SDS-PAA gel (12%) at 100 V for 3 h and transferred to a polyvinylidene difluoride (PVDF) membrane using the iBlot™ 2 Dry Blotting System (Invitrogen, Carlsbad, CA, USA). Membranes with transferred proteins were blocked in 5% BSA (bovine serum albumin; SERVA, Heidelberg, Germany) or 5% non-fat dry milk (Cell Signaling Technology®, Danvers, MA, USA) in TBS-Tween (pH 7.4) for 1 h at room temperature to minimise non-specific binding. Blocking was followed by incubation with primary antibodies (Table 6) overnight at 4 °C. The next day, membranes were washed in TBS-Tween (3 × 5 min) and incubated with the corresponding horseradish peroxidase (HRP)-conjugated anti-mouse or anti-rabbit secondary antibody for 1 h at room temperature. After incubation, membranes were washed again in TBS-Tween (3 × 5 min) and the expression of proteins was detected using the MF-ChemiBIS 2.0 Imaging System (DNR BIO-Imaging Systems, Jerusalem, Israel) with chemiluminescent ECL substrate (Thermo Scientific, Rockford, IL, USA). A densitometric analysis of Western Blot (WB) results was performed using the Image Studio™ Lite Software (LI-COR Biosciences, Lincoln, NE, USA). Equal loading was verified by using the β-actin antibody. Three independent analyses were performed.

BLM melanoma cells [2] = assay: as above
Method: as §1

A2058 melanoma cells [3] = assay: Flow cytometric analysis of mitochondrial membrane potential (TMRE); conditions: A2058, 1C 10 μmol/L, 24, 48 and 72 h
Method: (§2) The A2058 and BLM melanoma cells were seeded 1 × 10^6 in Petri dishes with complete growth medium and cultivated for 24 h. After cell cultivation, the A2058 cells were treated with chalcone 1C at 10 μmol/L concentration, BLM cells at 20 μmol/L concentration and both melanoma cell lines were treated with DMSO as the negative control at the same concentrations for 24, 48 and 72 h. Adherent and floating cells were harvested, pelleted by centrifugation at 1200 rpm for 5 min. Pellets were resuspended in washing buffer (PBS) and divided for a particular analysis. Afterwards, cells were prepared according to assay kit protocols or fixed with cold 4% paraformaldehyde (15 min) and permeabilized with 90% methanol (10 min on ice) with washing steps (PBS) and stained prior to analysis (Table 5) for 15 min in the dark at room temperature. Fluorescence was detected using a BD FACSCalibur^TM Flow Cytometer (Becton Dickinson, San Jose, CA, USA).

BLM melanoma cells [4] = assay: as above; conditions: 1C 20 μmol/L, 24, 48 and 72 h
Method: as §2

A2058 melanoma cells [5] = assay: Apoptosis detection, Annexin V/PI staining; conditions: A2058, 1C 10 μmol/L
Text: (§3) Phosphatidylserine (PS) is an anionic phospholipid located on the cytoplasmic surface of the plasma membrane in cells with intact membranes. The externalization of PS from the inner to outer surface of the lipid bilayer of plasma membrane is a typical marker of apoptosis in the early stages. Annexin V/PI double staining is a method for dividing cells into populations of living (An^−/PI^− Q3), early apoptotic (An^+/PI^− Q4), late apoptotic/necrotic (An^+/PI^+ Q2) and dead (An^−/PI^+ Q1). […] Furthermore, the concomitant decrease of living cells and the increased number of dead cells were also observed in a time-dependent pattern (Table 4, Figure 4).
(§4) To perform apoptosis detection, A2058 and BLM melanoma cells were seeded in Petri dishes at a density of 1 × 10^5/dish and treated with chalcone 1C and DMSO as the negative control at the same concentrations for 24, 48 and 72 h. In the next step, adherent and floating melanoma cells were harvested, centrifuged and pellets were resuspended in washing buffer (PBS). Resuspended melanoma cells were stained with Annexin V-Alexa Fluor® 647 antibody (Thermo Scientific, Rockford, IL, USA) in binding buffer for 20 min in the dark at room temperature. Finally, melanoma cells were washed, stained with 1 μL of propidium iodide (final concentration 25 μg/mL) for 5 min and analysed using a BD FACSCalibur^TM Flow Cytometer (Becton Dickinson, San Jose, CA, USA). Three independent analyses were performed.

BLM melanoma cells [6] = assay: Apoptosis detection, Annexin V/PI staining; conditions: 1C 20 μmol/L
Text: as §3, §4

BLM melanoma cells [7] = assay: Flow cytometric analysis of DNA damage (ATM, SMC1, H2A.X phosphorylation)
Method: as §2

[8] = A2058, 1C 10 μmol/L, 24, 48 and 72 h
[9] = 1C 20 μmol/L, maximum after 72 h

With COc1cccc(OC)c1C(=O)/C=C/c1c2ccccc2nc2ccccc12 [Compound 1C, (2E)-3-(acridin-9-yl)-1-(2,6-dimethoxyphenyl)prop-2-en-1-one] the “Levels of antiapoptotic protein Bcl-xL (WB)” value (A2058 melanoma cells [1]; A2058, 1C 10 μmol/L) was “decreased levels”, the “Phosphorylation of Bad (WB)” value (A2058 melanoma cells [1]; A2058, 1C 10 μmol/L) was “increasing up to 48 h” and the “Phosphorylation of Bcl-2 (WB)” value (A2058 melanoma cells [1]; A2058, 1C 10 μmol/L) was “increased in A2058 up to 48 h and decreased at 72 h”. The “Phosphorylation of Chk1 (WB)” value (A2058 melanoma cells [1]; A2058, 1C 10 μmol/L, 24, 48 (maximum) and 72 h) was “significantly induced”, the “Levels of cleaved PARP (89 kDa) (WB)” value (A2058 melanoma cells [1]; [8]) was “significantly increased” and the “Total and phosphorylated p53 protein (WB)” value (A2058 melanoma cells [1]; [8]) was “significant increase”. For the same molecule, the “Expression of p21 protein (WB)” value (A2058 melanoma cells [1]; A2058, 1C 10 μmol/L, after 24 and 48 h) was “significant increase”, the “Phospho-JNK (WB)” value (A2058 melanoma cells [1]; A2058, 1C 10 μmol/L, all tested timepoints) was “significantly increased” and the “Phosphorylated form of p38 MAPK (WB)” value (A2058 melanoma cells [1]; A2058, 1C 10 μmol/L, mainly after 48 h) was “significantly increased”. The “Expression of α-, α1C- and β-tubulin (WB)” value (A2058 melanoma cells [1]; A2058, 1C 10 μmol/L, maximum after 48 and 72 h) was “significant upregulation”, the “Phosphorylation of ERK1/2 (WB)” value (A2058 melanoma cells [1]; A2058, 1C 10 μmol/L, maximum after 48 h) was “significantly increased” and the “Phosphorylated cyclin B1 (WB)” value (A2058 melanoma cells [1]; A2058, 1C 10 μmol/L, maximum after 72 h) was “significant downregulation”. The “Amounts of proapoptotic protein Bax and Bad (WB)” value (A2058 melanoma cells [1]; A2058, 1C 10 μmol/L, maximum at 48 h) was “significantly increased”, the “Total Bcl-2 protein (WB)” value (A2058 melanoma cells [1]; A2058, 1C 10 μmol/L, up to 48 h) was “upregulated” and the “Expression of p21 protein (WB)” value (BLM melanoma cells [2]; 1C 20 μmol/L) was “showed an increase and maintained a trend”. For the same molecule, the “Levels of antiapoptotic protein Bcl-xL (WB)” value (BLM melanoma cells [2]; 1C 20 μmol/L) was “decreased levels”, the “Phosphorylation of Bad (WB)” value (BLM melanoma cells [2]; 1C 20 μmol/L) was “increasing up to 48 h” and the “Phosphorylation of Bcl-2 (WB)” value (BLM melanoma cells [2]; 1C 20 μmol/L) was “increased up to the 72 h time point”. The “Phosphorylation of Chk1 (WB)” value (BLM melanoma cells [2]; 1C 20 μmol/L) was “consilient trend of Chk1 phosphorylation”, the “Phosphorylation of ERK1/2 (WB)” value (BLM melanoma cells [2]; 1C 20 μmol/L) was “consilient trend of ERK1/2 phosphorylation” and the “Total Bcl-2 protein upregulated (WB)” value (BLM melanoma cells [2]; 1C 20 μmol/L) was “it was not”. The “p53 phosphorylation (WB)” value (BLM melanoma cells [2]; 1C 20 μmol/L) was “phosphorylation increased late on 72 h”, the “Levels of cleaved PARP (89 kDa) (WB)” value (BLM melanoma cells [2]; 1C 20 μmol/L, 24, 48 and 72 h) was “significantly increased” and the “Total p53 protein (WB)” value (BLM melanoma cells [2]; 1C 20 μmol/L, 24, 48 and 72 h) was “maintenanted on basic levels as DMSO treated controls, with little decrease at 24 h”. The “Phospho-JNK (WB)” value (BLM melanoma cells [2]; 1C 20 μmol/L, all tested timepoints) was “significantly increased”, the “Phosphorylated form of p38 MAPK (WB)” value (BLM melanoma cells [2]; 1C 20 μmol/L, mainly after 48 h) was “significantly increased” and the “Expression of α1C-tubulin (WB)” value (BLM melanoma cells [2]; [9]) was “upregulation”. The “Phosphorylated cyclin B1 (WB)” value (BLM melanoma cells [2]; [9]) was “significant downregulation”, the “Amounts of proapoptotic protein Bax and Bad (WB)” value (BLM melanoma cells [2]; 1C 20 μmol/L, maximum at 48 h) was “significantly increased” and the “Expression of α- and β-tubulin (WB)” value (BLM melanoma cells [2]; 1C 20 μmol/L, time-dependent) was “significant downregulation”. For the same molecule, the “Cells with reduced mitochondrial membrane potential (MMP)” value (A2058 melanoma cells [3]) was “significant increase”, the “Cells with reduced mitochondrial membrane potential (MMP)” value (BLM melanoma cells [4]) was “significant increase” and the “Dead An−/PI+” value (A2058 melanoma cells [5]; 24 h) was 3.41 ± 0.46. The “Early Apo An+/PI−” value (A2058 melanoma cells [5]; 24 h) was 7.53 ± 1.17, the “Late Apo An+/PI+” value (A2058 melanoma cells [5]; 24 h) was 4.22 ± 0.47 and the “Live An−/PI−” value (A2058 melanoma cells [5]; 24 h) was 84.80 ± 0.24. The “Dead An−/PI+” value (A2058 melanoma cells [5]; 48 h) was 5.94 ± 0.52, the “Early Apo An+/PI−” value (A2058 melanoma cells [5]; 48 h) was 11.52 ± 0.42 and the “Late Apo An+/PI+” value (A2058 melanoma cells [5]; 48 h) was 13.85 ± 2.57. The “Live An−/PI−” value (A2058 melanoma cells [5]; 48 h) was 68.70 ± 1.63, the “Dead An−/PI+” value (A2058 melanoma cells [5]; 72 h) was 11.65 ± 1.43 and the “Early Apo An+/PI−” value (A2058 melanoma cells [5]; 72 h) was 13.30 ± 1.71. The “Late Apo An+/PI+” value (A2058 melanoma cells [5]; 72 h) was 23.05 ± 4.94, the “Live An−/PI−” value (A2058 melanoma cells [5]; 72 h) was 52.00 ± 5.23 and the “Dead An−/PI+” value (BLM melanoma cells [6]; 24 h) was 6.25 ± 0.20. The “Early Apo An+/PI−” value (BLM melanoma cells [6]; 24 h) was 12.96 ± 0.77, the “Late Apo An+/PI+” value (BLM melanoma cells [6]; 24 h) was 6.90 ± 0.09 and the “Live An−/PI−” value (BLM melanoma cells [6]; 24 h) was 73.90 ± 0.49. For the same molecule, the “Dead An−/PI+” value (BLM melanoma cells [6]; 48 h) was 5.81 ± 0.86, the “Early Apo An+/PI−” value (BLM melanoma cells [6]; 48 h) was 20.25 ± 1.27 and the “Late Apo An+/PI+” value (BLM melanoma cells [6]; 48 h) was 12.40 ± 0.49. The “Live An−/PI−” value (BLM melanoma cells [6]; 48 h) was 61.50 ± 2.61, the “Dead An−/PI+” value (BLM melanoma cells [6]; 72 h) was 5.90 ± 1.47 and the “Early Apo An+/PI−” value (BLM melanoma cells [6]; 72 h) was 25.95 ± 3.80. For the same molecule, the “Late Apo An+/PI+” value (BLM melanoma cells [6]; 72 h) was 28.55 ± 3.23, the “Live An−/PI−” value (BLM melanoma cells [6]; 72 h) was 39.60 ± 0.90 and the “Phosphorylation of H2A.X” value (BLM melanoma cells [7]; 1C 20 μmol/L, 24, 48 and 72 h) was “significantly induced”. The “Phosphorylation of SMC1” value (BLM melanoma cells [7]; 1C 20 μmol/L, 24, 48 and 72 h) was “significant phosphorylation” and the “Phosphorylation of ATM” value (BLM melanoma cells [7]; 1C 20 μmol/L, time-dependent (24, 48 and 72 h)) was “significantly induced”.
